Values quoted from earlier work as cited in patent EP4520318A1, “TRANSDERMAL THERAPEUTIC SYSTEM OF LUMATEPERONE” (Luye Pharma Switzerland AG, priority 2023, dated 2025).

Conditions: oral administration

- oral bioavailability: about 4.4%
Structure (SMILES): CN1CCN2c3c(cccc31)[C@@H]1CN(CCCC(=O)c3ccc(F)cc3)CC[C@@H]12 [lumateperone, 1-(4-fluoro-phenyl)-4-((6bR, 10aS)-3-methyl-2,3,6b,9,10,10a-hexahydro-1H,7H-pyrido[3',4':4,5]pyrrolo[1,2,3-de]quinoxalin-8-yl)-butan-1-one]
